# In ChEMBL document CHEMBL1201862, “PubChem BioAssay data set” (2004):
# “And” between values parts separate entries of the source, which are not always exact repeats. Equal values may be shown once. The source made the active and inactive calls.
# Key:
# [1] = biological target: T1, High affinity choline transporter 1 (Homo sapiens, UniProt Q9GZV3); experiment: human choline transporter blockers, potency – cell-based, 5-point CRC, membrane potential dye, dose response (AID 504840); assay type: functional
# T1 sequence (Q9GZV3 whole entry): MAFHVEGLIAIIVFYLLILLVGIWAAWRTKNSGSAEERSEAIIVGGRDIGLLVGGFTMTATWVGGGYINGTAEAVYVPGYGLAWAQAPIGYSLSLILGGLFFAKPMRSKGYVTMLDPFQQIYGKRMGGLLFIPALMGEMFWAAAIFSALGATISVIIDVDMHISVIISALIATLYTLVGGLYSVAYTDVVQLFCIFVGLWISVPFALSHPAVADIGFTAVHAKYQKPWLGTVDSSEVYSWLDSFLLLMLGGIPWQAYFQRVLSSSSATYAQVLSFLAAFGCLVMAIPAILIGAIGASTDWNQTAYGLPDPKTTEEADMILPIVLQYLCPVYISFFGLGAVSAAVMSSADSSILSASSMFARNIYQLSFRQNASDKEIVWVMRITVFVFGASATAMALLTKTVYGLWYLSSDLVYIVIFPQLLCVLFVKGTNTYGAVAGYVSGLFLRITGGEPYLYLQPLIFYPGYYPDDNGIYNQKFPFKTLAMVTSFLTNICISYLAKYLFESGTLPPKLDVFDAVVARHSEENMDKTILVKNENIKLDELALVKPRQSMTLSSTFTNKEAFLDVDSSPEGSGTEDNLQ
# [2] = biological target: T2, Polyadenylate-binding protein 1 (Homo sapiens, UniProt P11940); experiment: MLLE binding blockers, Cy5 peptide tracer – biochemical, fluorescence polarization, Cy5-PAM2 peptide, secondary, miRNA deadenylation inhibitor project, dose response (AID 602260); assay type: functional; conditions: read-out: IC50_Mean
# T2 sequence (P11940 whole entry, the tested form may be a part): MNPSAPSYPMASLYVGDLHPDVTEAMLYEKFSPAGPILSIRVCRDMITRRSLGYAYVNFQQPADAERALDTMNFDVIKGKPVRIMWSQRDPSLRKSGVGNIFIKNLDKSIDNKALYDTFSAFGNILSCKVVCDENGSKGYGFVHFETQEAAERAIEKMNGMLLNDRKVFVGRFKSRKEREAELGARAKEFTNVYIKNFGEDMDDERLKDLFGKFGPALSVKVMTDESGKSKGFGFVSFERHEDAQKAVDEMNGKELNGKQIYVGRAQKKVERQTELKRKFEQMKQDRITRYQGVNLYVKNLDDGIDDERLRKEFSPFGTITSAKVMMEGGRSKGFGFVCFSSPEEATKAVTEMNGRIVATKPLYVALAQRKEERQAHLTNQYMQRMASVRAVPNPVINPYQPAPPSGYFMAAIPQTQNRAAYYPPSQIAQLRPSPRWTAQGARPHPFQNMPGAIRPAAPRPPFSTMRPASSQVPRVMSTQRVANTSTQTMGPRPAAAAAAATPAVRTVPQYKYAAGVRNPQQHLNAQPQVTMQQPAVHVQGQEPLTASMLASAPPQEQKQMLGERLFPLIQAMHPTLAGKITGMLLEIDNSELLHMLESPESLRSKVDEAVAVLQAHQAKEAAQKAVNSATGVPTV
# [3] = biological target: T2, Polyadenylate-binding protein 1; experiment: MLLE domain peptide-binding blockers, IC50 – biochemical, fluorescence polarization, FITC-PAM2 peptide, dose response (AID 602259); assay type: functional; conditions: read-out: IC50_Mean
# [4] = Luminescence Cell-Based Dose Retest to Confirm Inhibitors of Cancer Stem Cells. [Related pubchem assays (depositor defined):AID2717, AID2721]; assay type: functional; conditions: Homo sapiens
# [5] = microbe, parasite or virus in culture; assay type: functional; conditions: Mycobacterium tuberculosis
# [6] = biological target: Heat shock protein HSP 90-alpha (Homo sapiens, UniProt P07900); assay type: functional, organism-based
# [7] = biological target: T3, Replicative DNA helicase DnaB (Mycobacterium tuberculosis, UniProt P9WMR3); experiment: DnaB intein splicing inhibitors, dose response, biochemical, cell-free fluorescence (AID 449749); assay type: functional
# T3 sequence (P9WMR3 whole entry): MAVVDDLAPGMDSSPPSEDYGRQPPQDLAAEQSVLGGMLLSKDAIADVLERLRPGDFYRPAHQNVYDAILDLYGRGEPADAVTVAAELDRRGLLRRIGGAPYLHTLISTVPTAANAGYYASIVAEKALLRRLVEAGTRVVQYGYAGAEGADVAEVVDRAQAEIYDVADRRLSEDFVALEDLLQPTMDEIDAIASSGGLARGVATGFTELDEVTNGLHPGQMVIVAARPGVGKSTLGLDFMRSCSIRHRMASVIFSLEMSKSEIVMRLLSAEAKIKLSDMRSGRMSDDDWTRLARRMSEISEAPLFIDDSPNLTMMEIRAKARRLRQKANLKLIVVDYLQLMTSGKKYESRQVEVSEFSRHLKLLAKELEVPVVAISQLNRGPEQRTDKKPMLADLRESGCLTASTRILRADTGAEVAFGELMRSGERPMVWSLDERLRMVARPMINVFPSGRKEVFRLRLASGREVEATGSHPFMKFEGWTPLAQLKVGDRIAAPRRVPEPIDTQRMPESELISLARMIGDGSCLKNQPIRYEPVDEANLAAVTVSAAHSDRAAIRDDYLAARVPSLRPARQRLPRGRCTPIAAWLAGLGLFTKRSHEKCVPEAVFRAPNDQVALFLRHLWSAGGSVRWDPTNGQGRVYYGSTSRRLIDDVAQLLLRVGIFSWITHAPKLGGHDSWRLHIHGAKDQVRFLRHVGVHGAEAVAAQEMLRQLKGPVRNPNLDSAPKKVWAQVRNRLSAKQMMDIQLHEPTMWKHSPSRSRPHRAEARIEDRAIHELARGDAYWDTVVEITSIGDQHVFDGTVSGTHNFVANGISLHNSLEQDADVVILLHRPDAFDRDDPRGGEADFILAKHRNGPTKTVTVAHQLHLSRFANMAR
# Protein RecA = biological target: T4, Protein RecA (Mycobacterium tuberculosis, UniProt P9WHJ3); experiment: Fluorescence Cell-Free Homogeneous Dose Retest to Identify Inhibitors of RecA-Intein Splicing Activity. [Related pubchem assays (depositor defined):AID2097, AID2223, AID489010, AID492950]; assay type: functional
# T4 sequence (P9WHJ3 whole entry): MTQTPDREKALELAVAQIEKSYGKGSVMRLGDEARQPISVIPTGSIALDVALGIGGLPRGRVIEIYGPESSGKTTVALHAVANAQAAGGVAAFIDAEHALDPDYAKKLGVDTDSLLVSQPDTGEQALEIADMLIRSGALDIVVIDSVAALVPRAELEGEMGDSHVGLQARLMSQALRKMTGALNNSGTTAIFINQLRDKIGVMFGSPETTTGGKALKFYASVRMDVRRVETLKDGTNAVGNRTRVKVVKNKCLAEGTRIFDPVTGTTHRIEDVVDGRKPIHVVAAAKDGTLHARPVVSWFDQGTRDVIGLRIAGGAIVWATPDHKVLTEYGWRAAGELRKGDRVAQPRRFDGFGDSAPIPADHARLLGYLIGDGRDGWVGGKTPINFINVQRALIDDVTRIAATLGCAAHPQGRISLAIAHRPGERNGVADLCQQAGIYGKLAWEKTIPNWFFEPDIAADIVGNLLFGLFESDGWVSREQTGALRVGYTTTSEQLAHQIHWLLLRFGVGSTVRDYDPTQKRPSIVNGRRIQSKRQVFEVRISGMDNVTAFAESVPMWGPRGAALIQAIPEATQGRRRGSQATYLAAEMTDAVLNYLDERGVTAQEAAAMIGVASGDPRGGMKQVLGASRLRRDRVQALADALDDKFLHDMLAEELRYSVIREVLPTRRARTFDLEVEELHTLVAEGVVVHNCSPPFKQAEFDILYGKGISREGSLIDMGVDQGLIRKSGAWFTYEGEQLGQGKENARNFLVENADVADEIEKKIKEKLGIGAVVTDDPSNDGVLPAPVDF
# P388/ADR = experiment: cells; assay type: functional; conditions: Mus musculus
# SN12K1 = experiment: cells; assay type: functional; conditions: Homo sapiens
# P388 = experiment: cells; assay type: functional; conditions: Mus musculus
# Exodeoxyribonuclease V = biological target: T5, Exodeoxyribonuclease V (Escherichia coli (strain K12), UniProt P04993+P07648+P08394); experiment: RecBCD inhibition via phage-restricted bacterial growth – absorbance, V66 E. coli, mutant T4 phage, counter-screen for AddAB inhibitor project, dose response (AID 492957); assay type: functional, cell-based, Escherichia coli str. K-12 substr. MG1655
# T5 sequence (P04993 whole entry): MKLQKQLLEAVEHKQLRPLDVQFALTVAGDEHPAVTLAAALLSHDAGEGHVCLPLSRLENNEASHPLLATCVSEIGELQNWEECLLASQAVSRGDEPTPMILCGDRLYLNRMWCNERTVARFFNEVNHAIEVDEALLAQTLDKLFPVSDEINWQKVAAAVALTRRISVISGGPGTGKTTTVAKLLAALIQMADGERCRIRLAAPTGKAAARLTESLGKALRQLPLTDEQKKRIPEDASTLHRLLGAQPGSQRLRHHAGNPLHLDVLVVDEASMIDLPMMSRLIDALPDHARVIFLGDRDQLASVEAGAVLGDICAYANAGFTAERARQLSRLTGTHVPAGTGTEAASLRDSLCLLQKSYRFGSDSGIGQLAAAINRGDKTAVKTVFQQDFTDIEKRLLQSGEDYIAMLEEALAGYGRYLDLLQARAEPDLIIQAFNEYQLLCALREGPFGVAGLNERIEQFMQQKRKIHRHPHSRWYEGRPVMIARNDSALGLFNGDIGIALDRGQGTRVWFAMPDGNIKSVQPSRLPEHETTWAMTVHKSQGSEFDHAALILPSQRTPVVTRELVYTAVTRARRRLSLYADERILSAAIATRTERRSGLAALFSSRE
# T5 sequence (P07648 whole entry): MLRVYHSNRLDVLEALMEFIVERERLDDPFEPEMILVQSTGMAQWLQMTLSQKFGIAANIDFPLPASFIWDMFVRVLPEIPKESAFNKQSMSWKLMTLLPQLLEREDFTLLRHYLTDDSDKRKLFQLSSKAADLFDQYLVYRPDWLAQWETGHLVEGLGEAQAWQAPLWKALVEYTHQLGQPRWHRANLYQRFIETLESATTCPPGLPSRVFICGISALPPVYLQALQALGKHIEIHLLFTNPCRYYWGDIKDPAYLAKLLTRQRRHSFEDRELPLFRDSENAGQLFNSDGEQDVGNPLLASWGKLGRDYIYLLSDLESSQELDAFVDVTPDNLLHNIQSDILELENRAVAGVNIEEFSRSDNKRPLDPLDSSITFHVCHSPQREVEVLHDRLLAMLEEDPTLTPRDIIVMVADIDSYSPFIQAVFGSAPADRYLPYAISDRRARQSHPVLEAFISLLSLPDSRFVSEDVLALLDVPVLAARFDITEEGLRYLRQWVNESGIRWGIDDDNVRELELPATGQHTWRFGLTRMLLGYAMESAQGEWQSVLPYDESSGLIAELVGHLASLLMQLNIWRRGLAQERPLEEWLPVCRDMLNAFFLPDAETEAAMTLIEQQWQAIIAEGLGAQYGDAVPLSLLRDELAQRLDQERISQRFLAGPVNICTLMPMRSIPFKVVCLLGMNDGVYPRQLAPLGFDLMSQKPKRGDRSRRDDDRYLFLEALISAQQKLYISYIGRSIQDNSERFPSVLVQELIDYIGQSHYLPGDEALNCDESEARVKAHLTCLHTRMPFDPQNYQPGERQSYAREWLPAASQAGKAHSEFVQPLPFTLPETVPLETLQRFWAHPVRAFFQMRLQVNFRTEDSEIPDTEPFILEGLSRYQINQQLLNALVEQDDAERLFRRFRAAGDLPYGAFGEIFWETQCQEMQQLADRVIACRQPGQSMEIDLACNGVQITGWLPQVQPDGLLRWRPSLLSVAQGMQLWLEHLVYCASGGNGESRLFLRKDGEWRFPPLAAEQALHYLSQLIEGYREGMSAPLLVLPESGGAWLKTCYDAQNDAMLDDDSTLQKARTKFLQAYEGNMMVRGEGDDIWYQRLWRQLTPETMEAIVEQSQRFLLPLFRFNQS
# T5 sequence (P08394 whole entry): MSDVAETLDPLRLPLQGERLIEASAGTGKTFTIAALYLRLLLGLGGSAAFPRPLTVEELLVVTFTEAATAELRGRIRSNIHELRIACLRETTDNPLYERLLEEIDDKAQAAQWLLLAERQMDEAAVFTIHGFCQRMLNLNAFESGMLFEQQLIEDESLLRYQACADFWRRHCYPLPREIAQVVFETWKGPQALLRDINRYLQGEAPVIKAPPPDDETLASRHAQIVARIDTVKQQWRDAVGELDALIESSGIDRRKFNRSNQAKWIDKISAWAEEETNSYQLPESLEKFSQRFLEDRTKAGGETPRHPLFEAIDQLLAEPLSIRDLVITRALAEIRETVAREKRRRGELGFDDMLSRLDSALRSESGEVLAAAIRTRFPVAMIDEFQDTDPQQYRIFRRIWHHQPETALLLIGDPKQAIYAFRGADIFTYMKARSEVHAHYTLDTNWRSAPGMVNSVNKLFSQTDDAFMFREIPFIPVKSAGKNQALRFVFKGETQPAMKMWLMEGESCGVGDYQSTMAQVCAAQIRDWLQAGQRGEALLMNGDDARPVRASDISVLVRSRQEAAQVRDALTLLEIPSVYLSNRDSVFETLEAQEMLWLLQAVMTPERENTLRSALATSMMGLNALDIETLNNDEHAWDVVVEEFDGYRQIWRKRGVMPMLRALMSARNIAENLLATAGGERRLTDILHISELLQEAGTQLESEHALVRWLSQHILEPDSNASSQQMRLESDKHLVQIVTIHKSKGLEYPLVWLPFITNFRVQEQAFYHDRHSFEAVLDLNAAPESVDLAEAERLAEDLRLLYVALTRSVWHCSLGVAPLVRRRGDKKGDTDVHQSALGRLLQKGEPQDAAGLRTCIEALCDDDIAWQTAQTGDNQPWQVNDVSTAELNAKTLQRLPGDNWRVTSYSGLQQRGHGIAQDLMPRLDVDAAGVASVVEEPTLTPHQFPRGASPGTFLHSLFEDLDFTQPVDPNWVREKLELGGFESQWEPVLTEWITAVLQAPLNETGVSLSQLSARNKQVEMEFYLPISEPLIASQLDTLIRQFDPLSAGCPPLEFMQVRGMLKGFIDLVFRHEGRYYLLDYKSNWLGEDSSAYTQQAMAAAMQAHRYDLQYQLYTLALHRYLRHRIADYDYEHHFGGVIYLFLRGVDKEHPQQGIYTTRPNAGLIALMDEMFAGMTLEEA
smiles,measurement,setting,value
Cc1cccc(C2c3[nH]c4ccccc4c3CCN2C(=O)c2cc3c(nc2O)CCCC3)n1 (configuration not stated),IC50,[1],11.2 µM (active)
Cc1ccc(S(=O)(=O)Oc2ccc(/C=C3/C(=N)N4C(=NC3=O)SN=C4S(C)(=O)=O)cc2)cc1,IC50,[1],13.8 µM (active)
O=C(NC(=S)Nc1ccccc1Cl)c1cncc(Br)c1,IC50,[2],> 66 µM (inactive)
same,IC50,[3],> 66 µM (inactive)
Oc1cccc(C(O)CNCc2ccc(OCc3ccc(Cl)cc3Cl)cc2)c1 (configuration not stated),AC50,[4],3.69 µM (active)
same,IC50,[1],1.82 µM (active)
O=C(OCC(=O)C12CC3CC(CC(C3)C1)C2)c1ccc(O)cc1O,CC50,[5],> 40 µM (active)
same,AC50,[6],24.5 µM (active)
COc1ccc(OC)c(NC(=O)Nc2ccc(O)c3ccccc23)c1,AC50,[7],11.5 µM (active)
same,AC50,[6],0.434 µM (active)
same,EC50,Protein RecA,0.152 µM (active)
C=CCn1cc(C(=O)NCCCN(CC)CC)c(=O)c2cc(S(=O)(=O)N3CCC(C)CC3)ccc21,IC50,[1],13.2 µM (active)
O=C(/C=C/c1ccccc1)CCN1CCOCC1,AC50,[6],2.94 µM (active)
same,GI50,P388/ADR,2.43 µM (inactive)
same,GI50,SN12K1,16.5 µM (inactive)
same,GI50,P388,2.81 µM (inactive)
CCc1cn([C@H]2C[C@H](O)[C@@H](CO)O2)c(=O)[nH]c1=O [EDOXUDINE],IC50,Exodeoxyribonuclease V,> 119 µM (inactive) and > 118 µM (inactive)
